Results reported in ChEMBL document CHEMBL3885881, “DrugMatrix”.

Organism: Rattus norvegicus
Test: DrugMatrix - Regimen: Daily Repeat
Assay type: toxicity, organism-based, Sprague-Dawley
Set-up: regimen Daily Repeat, gender Male, age 6-8 weeks
Settings: in vivo, iv, vehicle 100 % SALINE; for ABSOLUTE BASOPHIL / ABSOLUTE EOSINOPHIL / ABSOLUTE LYMPHOCYTE / ABSOLUTE MONOCYTE / ABSOLUTE SEGMENTED NEUTROPHIL / BASOPHIL / EOSINOPHIL / ERYTHROCYTE COUNT / HEMATOCRIT / HEMOGLOBIN / LEUKOCYTE COUNT / LYMPHOCYTE / MEAN CORPUSCULAR HEMOGLOBIN / MEAN CORPUSCULAR HEMOGLOBIN CONCENTRATION / MEAN CORPUSCULAR VOLUME / MONOCYTE / NEUTROPHIL / NUCLEATED RED BLOOD CELLS / PLATELET COUNT: tissue Blood; for ALANINE AMINOTRANSFERASE / ALBUMIN / ALKALINE PHOSPHATASE / ASPARTATE AMINOTRANSFERASE / BLOOD UREA NITROGEN / CARBON DIOXIDE / CHLORIDE / CHOLESTEROL / CREATINE PHOSPHOKINASE / CREATININE / GLUCOSE / LACTATE DEHYDROGENASE / LIPASE / PHOSPHORUS / POTASSIUM / SODIUM / TOTAL BILIRUBIN / TOTAL PROTEIN / URIC ACID: tissue Plasma
[1] = 100 mg/kg, 72 h, dose level Low, time 3 day
[2] = 100 mg/kg, 120 h, dose level Low, time 5 day
[3] = 1000 mg/kg, 72 h, dose level High, time 3 day
[4] = 1000 mg/kg, 120 h, dose level High, time 5 day

OC[C@@H](O)[C@@H](O)[C@H](O)[C@H](O)CO [MANNITOL]
ABSOLUTE BASOPHIL [1]: 0 CELLS/uL
ABSOLUTE EOSINOPHIL [1]: 269 CELLS/uL
ABSOLUTE LYMPHOCYTE [1]: 11772.67 CELLS/uL
ABSOLUTE MONOCYTE [1]: 286.33 CELLS/uL
ABSOLUTE SEGMENTED NEUTROPHIL [1]: 638.67 CELLS/uL
BASOPHIL [1]: 0%
EOSINOPHIL [1]: 2%
ERYTHROCYTE COUNT [1]: 5.91 x10E6/uL
HEMATOCRIT [1]: 37.23%
HEMOGLOBIN [1]: 13.83 G/DL
LEUKOCYTE COUNT [1]: 12.97 x10E3/uL
LYMPHOCYTE [1]: 90.67%
MEAN CORPUSCULAR HEMOGLOBIN [1]: 23.43 pg
MEAN CORPUSCULAR HEMOGLOBIN CONCENTRATION [1]: 37.1 G/DL
MEAN CORPUSCULAR VOLUME [1]: 62.97 fL
MONOCYTE [1]: 2.33%
NEUTROPHIL [1]: 5%
NUCLEATED RED BLOOD CELLS [1]: 0 /100WBC
PLATELET COUNT [1]: 1250.33 x10E3/uL
ALANINE AMINOTRANSFERASE [1]: 48.67 u/L
ALBUMIN [1]: 4.13 G/DL
ALKALINE PHOSPHATASE [1]: 350 u/L
ASPARTATE AMINOTRANSFERASE [1]: 97.33 u/L
BLOOD UREA NITROGEN [1]: 16.33 mg/dL
CARBON DIOXIDE [1]: 24.67 mmol/L
CHLORIDE [1]: 104 MEQ/L
CHOLESTEROL [1]: 77.67 mg/dL
CREATINE PHOSPHOKINASE [1]: 393.67 u/L
CREATININE [1]: 0.2 mg/dL
GLUCOSE [1]: 160.33 mg/dL
LACTATE DEHYDROGENASE [1]: 480.67 u/L
LIPASE [1]: 8.67 u/L
PHOSPHORUS [1]: 13.8 mg/dL
POTASSIUM [1]: 6.9 MEQ/L
SODIUM [1]: 146.1 MEQ/L
TOTAL BILIRUBIN [1]: 0.2 mg/dL
TOTAL PROTEIN [1]: 5.93 G/DL
URIC ACID [1]: 1.7 mg/dL
ABSOLUTE BASOPHIL [2]: 0 CELLS/uL
ABSOLUTE EOSINOPHIL [2]: 0 CELLS/uL
ABSOLUTE LYMPHOCYTE [2]: 12262.33 CELLS/uL
ABSOLUTE MONOCYTE [2]: 402.33 CELLS/uL
ABSOLUTE SEGMENTED NEUTROPHIL [2]: 1202 CELLS/uL
BASOPHIL [2]: 0%
EOSINOPHIL [2]: 0%
ERYTHROCYTE COUNT [2]: 5.62 x10E6/uL
HEMATOCRIT [2]: 34.87%
HEMOGLOBIN [2]: 12.8 G/DL
LEUKOCYTE COUNT [2]: 13.87 x10E3/uL
LYMPHOCYTE [2]: 88.33%
MEAN CORPUSCULAR HEMOGLOBIN [2]: 22.77 pg
MEAN CORPUSCULAR HEMOGLOBIN CONCENTRATION [2]: 36.73 G/DL
MEAN CORPUSCULAR VOLUME [2]: 62 fL
MONOCYTE [2]: 3%
NEUTROPHIL [2]: 8.67%
NUCLEATED RED BLOOD CELLS [2]: 0 /100WBC
PLATELET COUNT [2]: 1182.33 x10E3/uL
ALANINE AMINOTRANSFERASE [2]: 73.33 u/L
ALBUMIN [2]: 4.27 G/DL
ALKALINE PHOSPHATASE [2]: 396 u/L
ASPARTATE AMINOTRANSFERASE [2]: 130.33 u/L
BLOOD UREA NITROGEN [2]: 17.67 mg/dL
CARBON DIOXIDE [2]: 21.67 mmol/L
CHLORIDE [2]: 110.67 MEQ/L
CHOLESTEROL [2]: 83 mg/dL
CREATINE PHOSPHOKINASE [2]: 1094.67 u/L
CREATININE [2]: 0.15 mg/dL
GLUCOSE [2]: 196.33 mg/dL
LACTATE DEHYDROGENASE [2]: 396.67 u/L
LIPASE [2]: 9.67 u/L
PHOSPHORUS [2]: 14.1 mg/dL
POTASSIUM [2]: 6.09 MEQ/L
SODIUM [2]: 148.6 MEQ/L
TOTAL BILIRUBIN [2]: 0.13 mg/dL
TOTAL PROTEIN [2]: 5.73 G/DL
URIC ACID [2]: 2.53 mg/dL
ABSOLUTE BASOPHIL [3]: 0 CELLS/uL
ABSOLUTE EOSINOPHIL [3]: 168 CELLS/uL
ABSOLUTE LYMPHOCYTE [3]: 12528 CELLS/uL
ABSOLUTE MONOCYTE [3]: 421 CELLS/uL
ABSOLUTE SEGMENTED NEUTROPHIL [3]: 916.33 CELLS/uL
BASOPHIL [3]: 0%
EOSINOPHIL [3]: 1.33%
ERYTHROCYTE COUNT [3]: 5.26 x10E6/uL
HEMATOCRIT [3]: 34.8%
HEMOGLOBIN [3]: 13.1 G/DL
LEUKOCYTE COUNT [3]: 14.03 x10E3/uL
LYMPHOCYTE [3]: 89%
MEAN CORPUSCULAR HEMOGLOBIN [3]: 24.9 pg
MEAN CORPUSCULAR HEMOGLOBIN CONCENTRATION [3]: 37.7 G/DL
MEAN CORPUSCULAR VOLUME [3]: 66.13 fL
MONOCYTE [3]: 3%
NEUTROPHIL [3]: 6.67%
NUCLEATED RED BLOOD CELLS [3]: 0 /100WBC
PLATELET COUNT [3]: 1218.33 x10E3/uL
ALANINE AMINOTRANSFERASE [3]: 45 u/L
ALBUMIN [3]: 4.1 G/DL
ALKALINE PHOSPHATASE [3]: 339.33 u/L
ASPARTATE AMINOTRANSFERASE [3]: 74.33 u/L
BLOOD UREA NITROGEN [3]: 14.67 mg/dL
CARBON DIOXIDE [3]: 21.67 mmol/L
CHLORIDE [3]: 105 MEQ/L
CHOLESTEROL [3]: 68.33 mg/dL
CREATINE PHOSPHOKINASE [3]: 402.67 u/L
CREATININE [3]: 0.13 mg/dL
GLUCOSE [3]: 181.67 mg/dL
LACTATE DEHYDROGENASE [3]: 239.67 u/L
LIPASE [3]: 9.33 u/L
PHOSPHORUS [3]: 14.13 mg/dL
POTASSIUM [3]: 6.11 MEQ/L
SODIUM [3]: 145 MEQ/L
TOTAL BILIRUBIN [3]: 0.23 mg/dL
TOTAL PROTEIN [3]: 5.93 G/DL
URIC ACID [3]: 1.77 mg/dL
ABSOLUTE BASOPHIL [4]: 0 CELLS/uL
ABSOLUTE EOSINOPHIL [4]: 45 CELLS/uL
ABSOLUTE LYMPHOCYTE [4]: 12203.33 CELLS/uL
ABSOLUTE MONOCYTE [4]: 139 CELLS/uL
ABSOLUTE SEGMENTED NEUTROPHIL [4]: 779.33 CELLS/uL
BASOPHIL [4]: 0%
EOSINOPHIL [4]: 0.33%
ERYTHROCYTE COUNT [4]: 5.59 x10E6/uL
HEMATOCRIT [4]: 35.07%
HEMOGLOBIN [4]: 13.4 G/DL
LEUKOCYTE COUNT [4]: 13.17 x10E3/uL
LYMPHOCYTE [4]: 92.67%
MEAN CORPUSCULAR HEMOGLOBIN [4]: 23.97 pg
MEAN CORPUSCULAR HEMOGLOBIN CONCENTRATION [4]: 38.27 G/DL
MEAN CORPUSCULAR VOLUME [4]: 62.67 fL
MONOCYTE [4]: 1%
NEUTROPHIL [4]: 6%
NUCLEATED RED BLOOD CELLS [4]: 0 /100WBC
PLATELET COUNT [4]: 1310 x10E3/uL
ALANINE AMINOTRANSFERASE [4]: 39 u/L
ALBUMIN [4]: 4.3 G/DL
ALKALINE PHOSPHATASE [4]: 331.67 u/L
ASPARTATE AMINOTRANSFERASE [4]: 64.67 u/L
BLOOD UREA NITROGEN [4]: 17.33 mg/dL
CARBON DIOXIDE [4]: 25.67 mmol/L
CHLORIDE [4]: 109.67 MEQ/L
CHOLESTEROL [4]: 67.67 mg/dL
CREATINE PHOSPHOKINASE [4]: 165.33 u/L
CREATININE [4]: 0.19 mg/dL
GLUCOSE [4]: 172.33 mg/dL
LACTATE DEHYDROGENASE [4]: 106.33 u/L
LIPASE [4]: 8.67 u/L
PHOSPHORUS [4]: 12.67 mg/dL
POTASSIUM [4]: 6.4 MEQ/L
SODIUM [4]: 148.93 MEQ/L
TOTAL BILIRUBIN [4]: 0.2 mg/dL
TOTAL PROTEIN [4]: 6.3 G/DL
URIC ACID [4]: 1.67 mg/dL
